Reference: US4263427A, “Monensin urethane derivatives” (priority 1979, dated 1981)
In brackets after ≈: the same amount, converted by molar mass. Counter-ions that a name gives are not always drawn. Like-named read-outs stand apart in the source and are kept apart here.

How the values were obtained:
[1] = test system: Bacillus megaterium 8CU; test: Minimum Inhibitory Concentration, agarwell diffusion assay (Table 6); assay type: cell-based; settings: Priestia megaterium, 8CU, read-out: Minimum Inhibitory Concentration, Bacillus megaterium 8CU
Source text: (§1) (a) Lowest twofold dilution giving zone of inhibition in the agarwell
(§2) (b) NRRL collection number, all the rest ate ATCC numbers.

[2] = test system: Bacillus sp. E 27859; test: as above; assay type: cell-based; settings: Bacillus
Source text: as §1, §2

[3] = test system: Bacillus sp. TA 27860; test: as above; assay type: cell-based; settings: Bacillus
Source text: as §1, §2

[4] = test system: Bacillus subtilis 583; test: as above; assay type: cell-based
Source text: as §1, §2

[5] = test system: MycoBacterium phiel 355; test: as above; assay type: cell-based; settings: Mycobacterium, 355, read-out: Minimum Inhibitory Concentration, MycoBacterium phiel 355
Source text: as §1, §2

[6] = test system: Paceilomyces variotl 25820; test: as above; assay type: cell-based; settings: read-out: Minimum Inhibitory Concentration, Paceilomyces variotl 25820
Source text: as §1, §2

[7] = test system: Sarcina lutca 9341; test: as above; assay type: cell-based; settings: Sarcina, 9341, read-out: Minimum Inhibitory Concentration, Sarcina lutca 9341
Source text: as §1, §2

[8] = test system: Staph. aureus 6538; test: as above; assay type: cell-based; settings: Staphylococcus aureus, 6538, read-out: Minimum Inhibitory Concentration, Staph. aureus 6538
Source text: as §1, §2

[9] = test system: Streptococcus cellulosac 3313; test: as above; assay type: cell-based; settings: Streptococcus, 3313, read-out: Minimum Inhibitory Concentration, Streptococcus cellulosac 3313
Source text: as §1, §2

[10] = test system: Streptococcus faecium 8043; test: as above; assay type: cell-based
Source text: as §1, §2

[11] = test system: Eimeria tenella; test: Anti-coccidial effect of monensin urethanes added to the feed of infected chickens (Table 7); assay type: in vivo; settings: infected untreated control 3.0, less than 2.5 significant
Experimental: This test utilizes ten chickens per drug group. Ten chickens are employed as a weight control and ten chickens as an infected control. The drug is given 48 hours in advance of the infection. One gm. of the test drug is mixed in a mechanical mixer with a sufficient amount of chicken feed to result in the desired dosage. The infection consists of approximately 200,000 oocysts given orally by pipette. The tests lasts for eleven days and then the surviving birds are autopsied and examined for gross lesions in the ceca. The test birds are rated according to the number of survivors and the number of cecal lesions. The results are expressed as average degree of infection (A.D.I.). An average degree of infection of less than 2.5 is considered to be significant.

[12] = test system: Treponema hyodysenteriae; test: Activity against Treponema hyodysenteriae (MIC, blood agar plates); assay type: cell-based; settings: Brachyspira hyodysenteriae, 48 h, 42° C., anaerobic
Source text: Testing for activity against Treponema hyodysenteriae, a cause of swine dysentery consisted of inoculation of blood agar plates containing a series of two or fourfold dilutions of the monensin urethane derivatives with tenfold dilutions of the T. hyodysenteriae strain.

[13] = Oral antihypertensive activity: blood pressure and heart rate (Table 9); assay type: in vivo
Source text: Compounds of formula I, and their pharmaceutically acceptable salts are orally active as antihypertensive agents.

[14] = test system: Plasmodium berghei; test: Oral antimalarial activity against Plasmodium berghei in mice; assay type: in vivo; settings: p.o.
Source text: Compounds of formula I wherein R4 is aryl, haloaryl or nitroaryl and their pharmaceutically acceptable salts are orally active as antimalarial agents.

[15] = test system: rumen fluid; settings: 50 ppm; control 100
[16] = SP.E27859, Bacillus sp. E 27859, read-out: Minimum Inhibitory Concentration
[17] = SP.TA27860, Bacillus sp. TA 27860, read-out: Minimum Inhibitory Concentration
[18] = Bacillus subtilis, 583, Bacillus subtilis 583 (NRRL), read-out: Minimum Inhibitory Concentration
[19] = Enterococcus faecium, 8043, Streptococcus faecium 8043, read-out: Minimum Inhibitory Concentration

CCC1(C2OC(C3OC(O)(COC(=O)NC4CCCCC4)C(C)CC3C)CC2C)CCC(C2(C)CCC3(CC(O)C(C)C(C(C)C(OC)C(C)C(=O)O)O3)O2)O1 (centres unmarked) [Monensin A, cyclohexylurethane]
MIC [1]: 0.4 µg/mL (≈ 0.502 µM) | MIC ([2]; SP.E27859, read-out: Minimum Inhibitory Concentration, Bacillus sp. E 27859): 0.2 µg/mL (≈ 0.251 µM) | MIC ([3]; SP.TA27860, read-out: Minimum Inhibitory Concentration, Bacillus sp. TA 27860): 0.6 µg/mL (≈ 0.754 µM) | MIC ([4]; Bacillus subtilis, 583, read-out: Minimum Inhibitory Concentration, Bacillus subtilis 583 (NRRL)): 0.8 µg/mL (≈ 1 µM) | MIC [5]: 3.1 µg/mL (≈ 3.89 µM) | MIC [6]: 3.1 µg/mL (≈ 3.89 µM) | MIC [7]: 0.8 µg/mL (≈ 1 µM) | MIC [8]: 1.6 µg/mL (≈ 2.01 µM) | MIC [9]: 3.1 µg/mL (≈ 3.89 µM) | MIC ([10]; Enterococcus faecium, 8043, read-out: Minimum Inhibitory Concentration, Streptococcus faecium 8043): 0.1 µg/mL (≈ 0.126 µM) | Average Degree of Infected (A.D.I.) ([11]; 125 ppm in feed): 0.8 | MIC [12]: 0.4 µg/mL (≈ 0.502 µM)

CCC1(C2OC(C3OC(O)(COC(=O)Nc4ccc(C)cc4)C(C)CC3C)CC2C)CCC(C2(C)CCC3(CC(O)C(C)C(C(C)C(OC)C(C)C(=O)O)O3)O2)O1 (centres unmarked) [Monensin A, 4-methylphenylurethane, Monensin A, 4-methyl phenylurethane]
MIC [1]: 0.2 µg/mL (≈ 0.249 µM) | MIC [2, 16]: 0.05 µg/mL (≈ 0.0622 µM) | MIC [3, 17]: 0.2 µg/mL (≈ 0.249 µM) | MIC [4, 18]: 0.4 µg/mL (≈ 0.497 µM) | MIC [5]: 1.6 µg/mL (≈ 1.99 µM) | MIC [6]: 1.6 µg/mL (≈ 1.99 µM) | MIC [7]: 0.4 µg/mL (≈ 0.497 µM) | MIC [8]: 0.4 µg/mL (≈ 0.497 µM) | MIC [9]: 0.8 µg/mL (≈ 0.995 µM) | MIC [10, 19]: 0.2 µg/mL (≈ 0.249 µM) | Average Degree of Infected (A.D.I.) ([11]; 75 ppm in feed): 1.1 | Day of Maximum Change, Blood Pressure ([13]; oral dose 1 mg/kg): 3 days | Day of Maximum Change, Heart Rate ([13]; oral dose 1 mg/kg): 4 days | Maximum Change (%), Blood Pressure ([13]; oral dose 1 mg/kg): 16% | Maximum Change (%), Heart Rate ([13]; oral dose 1 mg/kg): 15% | Mean Blood Pressure at time of maximum effect ([13]; oral dose 1 mg/kg): 182 mm Hg | Mean Blood Pressure before treatment ([13]; oral dose 1 mg/kg): 217 mm Hg

CCC1(C2OC(C3OC(O)(COC(=O)Nc4ccc(Cl)cc4)C(C)CC3C)CC2C)CCC(C2(C)CCC3(CC(O)C(C)C(C(C)C(OC)C(C)C(=O)O)O3)O2)O1 (centres unmarked) [Monensin A, 4-chlorophenylurethane]
MIC [1]: 0.2 µg/mL (≈ 0.243 µM) | MIC [2, 16]: 0.02 µg/mL (≈ 0.0243 µM) | MIC [3, 17]: 0.2 µg/mL (≈ 0.243 µM) | MIC [4, 18]: 0.4 µg/mL (≈ 0.485 µM) | MIC [5]: 0.8 µg/mL (≈ 0.97 µM) | MIC [6]: 3.1 µg/mL (≈ 3.76 µM) | MIC [7]: 0.2 µg/mL (≈ 0.243 µM) | MIC [8]: 0.4 µg/mL (≈ 0.485 µM) | MIC [9]: 0.8 µg/mL (≈ 0.97 µM) | MIC [10, 19]: 0.05 µg/mL (≈ 0.0606 µM) | Average Degree of Infected (A.D.I.) ([11]; 65 ppm in feed): 0.8 | MIC [12]: 0.08 µg/mL (≈ 0.097 µM) | ED50 [14]: 2.3 mg/kg | Day of Maximum Change, Blood Pressure ([13]; oral dose 1 mg/kg): 5 days | Day of Maximum Change, Heart Rate ([13]; oral dose 1 mg/kg): 5 days | Maximum Change (%), Blood Pressure ([13]; oral dose 1 mg/kg): 20% | Maximum Change (%), Heart Rate ([13]; oral dose 1 mg/kg): 19% | Mean Blood Pressure at time of maximum effect ([13]; oral dose 1 mg/kg): 179 mm Hg | Mean Blood Pressure before treatment ([13]; oral dose 1 mg/kg): 224 mm Hg

CCC1(C2OC(C3OC(O)(COC(=O)Nc4ccccc4)C(C)CC3C)CC2C)CCC(C2(C)CCC3(CC(O)C(C)C(C(C)C(OC)C(C)C(=O)O)O3)O2)O1 (centres unmarked) [Monensin A, phenylurethane]
MIC [1]: 0.4 µg/mL (≈ 0.506 µM) | MIC [2, 16]: 0.05 µg/mL (≈ 0.0633 µM) | MIC [3, 17]: 0.4 µg/mL (≈ 0.506 µM) | MIC [4, 18]: 0.4 µg/mL (≈ 0.506 µM) | MIC [5]: 3.1 µg/mL (≈ 3.92 µM) | MIC [6]: 3.1 µg/mL (≈ 3.92 µM) | MIC [7]: 0.8 µg/mL (≈ 1.01 µM) | MIC [8]: 0.8 µg/mL (≈ 1.01 µM) | MIC [9]: 3.1 µg/mL (≈ 3.92 µM) | MIC [10, 19]: 0.1 µg/mL (≈ 0.127 µM) | Average Degree of Infected (A.D.I.) ([11]; 75 ppm in feed): 0.9 | MIC [12]: 0.08 to 0.4 µg/mL (≈ 0.101 to 0.506 µM) | ED50 [14]: 4 mg/kg | Day of Maximum Change, Blood Pressure ([13]; oral dose 10 mg/kg): 2 days | Maximum Change (%), Blood Pressure ([13]; oral dose 10 mg/kg): 26% | Mean Blood Pressure at time of maximum effect ([13]; oral dose 10 mg/kg): 170 mm Hg | Mean Blood Pressure before treatment ([13]; oral dose 10 mg/kg): 229 mm Hg

CCC1(C2OC(C3OC(O)(COC(=O)Nc4ccc(Br)cc4)C(C)CC3C)CC2C)CCC(C2(C)CCC3(CC(O)C(C)C(C(C)C(OC)C(C)C(=O)O)O3)O2)O1 (centres unmarked) [Monensin A, 4-bromophenylurethane, 4-bromophenylaminocarbonyloxy-(0-11)-monensin, sodium salt]
MIC [1]: 0.1 µg/mL | MIC [2, 16]: 0.05 µg/mL | MIC [3, 17]: 0.2 µg/mL | MIC [4, 18]: 0.4 µg/mL | MIC [5]: 1.6 µg/mL | MIC [6]: 1.6 µg/mL | MIC [7]: 0.2 µg/mL | MIC [8]: 0.8 µg/mL | MIC [9]: 0.8 µg/mL | MIC [10, 19]: 0.1 µg/mL | Average Degree of Infected (A.D.I.) ([11]; 75 ppm in feed): 0.7 | MIC [12]: 0.4 µg/mL | ED50 [14]: 15 to 20 mg/kg | Day of Maximum Change, Blood Pressure ([13]; oral dose 1 mg/kg): 2 days | Maximum Change (%), Blood Pressure ([13]; oral dose 1 mg/kg): 21% | Mean Blood Pressure at time of maximum effect ([13]; oral dose 1 mg/kg): 178 mm Hg | Mean Blood Pressure before treatment ([13]; oral dose 1 mg/kg): 225 mm Hg | Rate of Gas Production, Percent Production of Control Fermentations [15]: 103.0% | Total VFA, Percent Production of Control Fermentations [15]: 89.9%

CCC1(C2OC(C3OC(O)(COC(=O)Nc4ccc(F)cc4)C(C)CC3C)CC2C)CCC(C2(C)CCC3(CC(O)C(C)C(C(C)C(OC)C(C)C(=O)O)O3)O2)O1 (centres unmarked) [Monensin A, 4-fluorophenylurethane]
MIC [1]: 0.4 µg/mL (≈ 0.495 µM) | MIC [2, 16]: 0.2 µg/mL (≈ 0.248 µM) | MIC [3, 17]: 0.8 µg/mL (≈ 0.99 µM) | MIC [4, 18]: 0.8 µg/mL (≈ 0.99 µM) | MIC [5]: 3.1 µg/mL (≈ 3.84 µM) | MIC [6]: 3.1 µg/mL (≈ 3.84 µM) | MIC [7]: 0.8 µg/mL (≈ 0.99 µM) | MIC [8]: 1.6 µg/mL (≈ 1.98 µM) | MIC [9]: 3.1 µg/mL (≈ 3.84 µM) | MIC [10, 19]: 0.1 µg/mL (≈ 0.124 µM) | Average Degree of Infected (A.D.I.) ([11]; 125 ppm in feed): 1.0 | MIC [12]: 0.08 µg/mL (≈ 0.099 µM) | Day of Maximum Change, Blood Pressure ([13]; oral dose 3 mg/kg): 2 days | Maximum Change (%), Blood Pressure ([13]; oral dose 3 mg/kg): 17% | Mean Blood Pressure at time of maximum effect ([13]; oral dose 3 mg/kg): 182 mm Hg | Mean Blood Pressure before treatment ([13]; oral dose 3 mg/kg): 220 mm Hg

CCC1(C2OC(C3OC(O)(COC(=O)Nc4ccc([N+](=O)[O-])cc4)C(C)CC3C)CC2C)CCC(C2(C)CCC3(CC(O)C(C)C(C(C)C(OC)C(C)C(=O)O)O3)O2)O1 (centres unmarked) [Monensin A, 4-nitrophenylurethane]
Average Degree of Infected (A.D.I.) ([11]; 75 ppm in feed): 0.5
